Measured values as given in the supplement of paper PMC10307832.

Legend:
Test in all cases: relative viability (nuclei count vs DMSO), 5 days (fraction); higher = more cells survive
NCI-H23 = tested on: NCI-H23
Outline: (§1)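 Lung cancer cell lines were pin-tool dosed in 1536-well plates on the day after seeding, with either a lone drug or a fixed anchor-drug dose plus five library-drug doses (not always all listed) in √10 steps. Nuclei were counted on 4× images after 5 days. Relative viability is the ratio of treated-well to vehicle-well nuclei counts, with each value a median of duplicate plates.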

NCI-H2228 = tested on: NCI-H2228
Outline: as §1

EMC-BAC-2 = tested on: EMC-BAC-2
Outline: as §1

HCC-827 = tested on: HCC-827
Outline: as §1

HCC-366 = tested on: HCC-366
Outline: as §1

NCI-H2009 = tested on: NCI-H2009
Outline: as §1

NCI-H460 = tested on: NCI-H460
Outline: as §1

SW 1573 = tested on: SW 1573
Outline: as §1

CAL-12T = tested on: CAL-12T
Outline: as §1

NCI-H1792 = tested on: NCI-H1792
Outline: as §1

NCI-H1437 = tested on: NCI-H1437
Outline: as §1

A-427 = tested on: A-427
Outline: as §1

NCI-H1755 = tested on: NCI-H1755
Outline: as §1

LCLC-103H = tested on: LCLC-103H
Outline: as §1

COR-L 105 = tested on: COR-L 105
Outline: as §1

HARA = tested on: HARA
Outline: as §1

HOP-62 = tested on: HOP-62
Outline: as §1

NCI-H727 = tested on: NCI-H727
Outline: as §1

SK-LU-1 = tested on: SK-LU-1
Outline: as §1

NCI-H1915 = tested on: NCI-H1915
Outline: as §1

How did the relative viability (NCI-H23; first compound 0.005 µM) turn out when `COc1cc2nccc(Oc3ccc(NC(=O)Nc4cc(C)on4)c(Cl)c3)c2cc1OC` [Tivozanib] + CC(C)C[C@H](NC(=O)[C@H](Cc1ccccc1)NC(=O)c1cnccn1)B(O)O [Bortezomib] (partner 0.002 µM) was run?
Its relative viability is 0.946.

And the relative viability (NCI-H23; first compound 0.01581 µM)?
The relative viability was 0.975.

And the relative viability (NCI-H23; first compound 0.05 µM)?
The relative viability was 1.1.

And the relative viability (NCI-H23; first compound 0.1581 µM)?
Its relative viability is 0.785.

And the relative viability (NCI-H23; first compound 0.5 µM)?
The relative viability was 0.839.

And the relative viability (NCI-H2228; first compound 0.005 µM)?
The relative viability was 0.86.

What about the relative viability (NCI-H2228; first compound 0.01581 µM) of the same compound?
Its relative viability is 0.859.

And the relative viability (NCI-H2228; first compound 0.05 µM)?
Its relative viability is 1.02.

What about the relative viability (NCI-H2228; first compound 0.1581 µM) of the same compound?
Its relative viability is 0.887.

What about the relative viability (NCI-H2228; first compound 0.5 µM) of the same compound?
The relative viability was 0.972.

What about the relative viability (EMC-BAC-2; first compound 0.005 µM) of the same compound?
The relative viability was 1.05.

What about the relative viability (EMC-BAC-2; first compound 0.01581 µM) of the same compound?
Its relative viability is 1.07.

And the relative viability (EMC-BAC-2; first compound 0.05 µM)?
Its relative viability is 1.1.

What about the relative viability (EMC-BAC-2; first compound 0.1581 µM) of the same compound?
The relative viability was 0.769.

And the relative viability (EMC-BAC-2; first compound 0.5 µM)?
Its relative viability is 1.08.

What about the relative viability (HCC-827; first compound 0.005 µM) of the same compound?
Its relative viability is 0.981.

What about the relative viability (HCC-827; first compound 0.01581 µM) of the same compound?
Its relative viability is 1.01.

What about the relative viability (HCC-827; first compound 0.05 µM) of the same compound?
Its relative viability is 1.13.

And the relative viability (HCC-827; first compound 0.1581 µM)?
Its relative viability is 1.08.

And the relative viability (HCC-827; first compound 0.5 µM)?
The relative viability was 1.03.

What about the relative viability (HCC-366; first compound 0.005 µM) of the same compound?
Its relative viability is 1.01.

What about the relative viability (HCC-366; first compound 0.01581 µM) of the same compound?
The relative viability was 1.05.

And the relative viability (HCC-366; first compound 0.05 µM)?
The relative viability was 1.06.

And the relative viability (HCC-366; first compound 0.1581 µM)?
The relative viability was 1.05.

And the relative viability (HCC-366; first compound 0.5 µM)?
The relative viability was 1.05.

What about the relative viability (NCI-H2009; first compound 0.005 µM) of the same compound?
The relative viability was 0.945.

And the relative viability (NCI-H2009; first compound 0.01581 µM)?
The relative viability was 1.02.

What about the relative viability (NCI-H2009; first compound 0.05 µM) of the same compound?
The relative viability was 1.04.

And the relative viability (NCI-H2009; first compound 0.1581 µM)?
Its relative viability is 1.04.

And the relative viability (NCI-H2009; first compound 0.5 µM)?
Its relative viability is 0.732.

What about the relative viability (NCI-H460; first compound 0.005 µM) of the same compound?
Its relative viability is 1.13.

What about the relative viability (NCI-H460; first compound 0.01581 µM) of the same compound?
The relative viability was 1.04.

What about the relative viability (NCI-H460; first compound 0.05 µM) of the same compound?
The relative viability was 1.

And the relative viability (NCI-H460; first compound 0.1581 µM)?
Its relative viability is 1.12.

What about the relative viability (NCI-H460; first compound 0.5 µM) of the same compound?
The relative viability was 1.03.

What about the relative viability (SW 1573; first compound 0.005 µM) of the same compound?
Its relative viability is 1.02.

And the relative viability (SW 1573; first compound 0.01581 µM)?
The relative viability was 1.01.

And the relative viability (SW 1573; first compound 0.05 µM)?
Its relative viability is 0.936.

And the relative viability (SW 1573; first compound 0.1581 µM)?
Its relative viability is 0.772.

What about the relative viability (SW 1573; first compound 0.5 µM) of the same compound?
The relative viability was 0.831.

And the relative viability (CAL-12T; first compound 0.005 µM)?
The relative viability was 0.86.

And the relative viability (CAL-12T; first compound 0.01581 µM)?
The relative viability was 0.967.

And the relative viability (CAL-12T; first compound 0.05 µM)?
Its relative viability is 1.14.

What about the relative viability (CAL-12T; first compound 0.5 µM) of the same compound?
The relative viability was 1.03.

And the relative viability (NCI-H1792; first compound 0.005 µM)?
Its relative viability is 0.961.

And the relative viability (NCI-H1792; first compound 0.01581 µM)?
Its relative viability is 0.967.

And the relative viability (NCI-H1792; first compound 0.05 µM)?
Its relative viability is 0.965.

And the relative viability (NCI-H1792; first compound 0.1581 µM)?
Its relative viability is 0.989.

What about the relative viability (NCI-H1792; first compound 0.5 µM) of the same compound?
Its relative viability is 0.947.

And the relative viability (NCI-H1437; first compound 0.005 µM)?
Its relative viability is 0.487.

What about the relative viability (NCI-H1437; first compound 0.01581 µM) of the same compound?
Its relative viability is 0.558.

And the relative viability (NCI-H1437; first compound 0.05 µM)?
Its relative viability is 0.523.

What about the relative viability (NCI-H1437; first compound 0.1581 µM) of the same compound?
Its relative viability is 0.508.

And the relative viability (NCI-H1437; first compound 0.5 µM)?
The relative viability was 0.399.

What about the relative viability (A-427; first compound 0.005 µM) of the same compound?
The relative viability was 0.988.

What about the relative viability (A-427; first compound 0.01581 µM) of the same compound?
Its relative viability is 1.03.

What about the relative viability (A-427; first compound 0.05 µM) of the same compound?
The relative viability was 0.962.

And the relative viability (A-427; first compound 0.1581 µM)?
Its relative viability is 0.893.

What about the relative viability (A-427; first compound 0.5 µM) of the same compound?
Its relative viability is 0.932.

What about the relative viability (NCI-H1755; first compound 0.005 µM) of the same compound?
The relative viability was 0.911.

What about the relative viability (NCI-H1755; first compound 0.01581 µM) of the same compound?
The relative viability was 0.935.

What about the relative viability (NCI-H1755; first compound 0.05 µM) of the same compound?
The relative viability was 1.01.

And the relative viability (NCI-H1755; first compound 0.1581 µM)?
The relative viability was 0.577.

What about the relative viability (NCI-H1755; first compound 0.5 µM) of the same compound?
Its relative viability is 0.86.

And the relative viability (LCLC-103H; first compound 0.005 µM)?
Its relative viability is 0.964.

What about the relative viability (LCLC-103H; first compound 0.01581 µM) of the same compound?
The relative viability was 1.01.

And the relative viability (LCLC-103H; first compound 0.05 µM)?
Its relative viability is 1.21.

And the relative viability (LCLC-103H; first compound 0.1581 µM)?
The relative viability was 1.04.

What about the relative viability (LCLC-103H; first compound 0.5 µM) of the same compound?
The relative viability was 0.967.

What about the relative viability (COR-L 105; first compound 0.01581 µM) of the same compound?
The relative viability was 0.751.

And the relative viability (COR-L 105; first compound 0.05 µM)?
Its relative viability is 0.759.

What about the relative viability (COR-L 105; first compound 0.1581 µM) of the same compound?
Its relative viability is 0.702.

And the relative viability (COR-L 105; first compound 0.5 µM)?
The relative viability was 0.681.

And the relative viability (HARA; first compound 0.005 µM)?
Its relative viability is 1.03.

And the relative viability (HARA; first compound 0.01581 µM)?
Its relative viability is 1.18.

What about the relative viability (HARA; first compound 0.05 µM) of the same compound?
The relative viability was 1.08.

And the relative viability (HARA; first compound 0.1581 µM)?
The relative viability was 1.27.

What about the relative viability (HARA; first compound 0.5 µM) of the same compound?
The relative viability was 1.14.

What about the relative viability (HOP-62; first compound 0.005 µM) of the same compound?
The relative viability was 0.708.

What about the relative viability (HOP-62; first compound 0.01581 µM) of the same compound?
The relative viability was 0.659.

And the relative viability (HOP-62; first compound 0.05 µM)?
Its relative viability is 0.548.

And the relative viability (HOP-62; first compound 0.1581 µM)?
Its relative viability is 0.565.

What about the relative viability (HOP-62; first compound 0.5 µM) of the same compound?
The relative viability was 0.819.

What about the relative viability (NCI-H727; first compound 0.005 µM) of the same compound?
Its relative viability is 0.701.

What about the relative viability (NCI-H727; first compound 0.01581 µM) of the same compound?
Its relative viability is 0.818.

What about the relative viability (NCI-H727; first compound 0.05 µM) of the same compound?
The relative viability was 0.772.

And the relative viability (NCI-H727; first compound 0.5 µM)?
The relative viability was 0.873.

What about the relative viability (SK-LU-1; first compound 0.005 µM) of the same compound?
The relative viability was 0.931.

What about the relative viability (SK-LU-1; first compound 0.01581 µM) of the same compound?
Its relative viability is 1.26.

What about the relative viability (SK-LU-1; first compound 0.05 µM) of the same compound?
Its relative viability is 1.2.

What about the relative viability (SK-LU-1; first compound 0.1581 µM) of the same compound?
Its relative viability is 0.784.

What about the relative viability (SK-LU-1; first compound 0.5 µM) of the same compound?
Its relative viability is 0.907.

What about the relative viability (NCI-H1915; first compound 0.005 µM) of the same compound?
Its relative viability is 0.945.

What about the relative viability (NCI-H1915; first compound 0.01581 µM) of the same compound?
Its relative viability is 0.986.

And the relative viability (NCI-H1915; first compound 0.05 µM)?
The relative viability was 0.952.

And the relative viability (NCI-H1915; first compound 0.1581 µM)?
Its relative viability is 0.921.

And the relative viability (NCI-H1915; first compound 0.5 µM)?
Its relative viability is 0.884.
